Test results as given in patent publication EP4474016A1, “STRATEGIES TO TARGET EXTRACELLULARLY ACCESSIBLE RAS PROTEIN” (Julius-Maximilians-Universität Würzburg, priority 2023, dated 2024).

Key:
[1] = system: human acute monocytic leukemia cell line MV4-11; test: in vitro killing assay of anti-Ras bispecific antibody alone or in combination with DMSO (luciferase read-out); assay type: cell-based; settings: alone, read-out: viability drop of MV4-11 cells
Description: (§1) The anti-Ras bispecific antibody constructs SFV02_PCC06 (SEQ ID No 75 + 76) was tested in cell culture against the human Multiple Myeloma cell lines MM.1S and the human acute monocytic leukemia cell line MV4-11. The MM. 1S and MV4-11 cells are luziferase positive and were seeded into 96-well cell culture plates (for each cell line 7500 cells in 50 µL per well in 150 µL medium) in the corresponding medium (Table 1) and incubated at 37°C and 5% CO2 for 24 hours. The next day, fresh human CD3+/CD8+ T-cells were added to each well, for a final tumour cell to T cells ratio of 1 to 5. Two dilution series were prepared of the SFV02_PCC06 antibody: (i) A final concentration of 25 nM, 12.5 nM, 6.25 nM and 3.125 nM (Figure 15), and (ii) a final concentration of 15 nM, 7.5 nM, 3.75 nM, 1.87 nM, 0.93 nM, 0.46 nM, 0.23 nM and 0.11 nM (Figure 16). From the antibody dilution series, 20 µL was added to each respective well.
(§2) To test if chemical compounds can improve and/or increase the bi-specific anti Ras antibody directed killing of tumours cells, two compounds were tested. […] Afterwards, the bioluminescence of the firefly-luciferase was measured, using a Tecan Spark plate reader (with an absorbance scan from 350 nm to 700 nm with an integration time interval of 1000 ms).

[2] = system: aberrant expressed Ras on the cell surface; test: cell-based ELISA of aberrant Ras protein on the cell surface under normal and stress conditions; parameters: species or system human; settings: versus complete medium; for aberrant Ras expression on the cell surface: Lenalidomide 1.5µM overnight
Description: For the cell-based ELISA, different adherent cell lines (AsPC-1, Panc-1, SK-BR-3 and BT-474) were used. First, the cell culture medium was removed, and the cells were washed one time with PBS. After washing, 2 ml of […] Trypsin-EDTA (Gibco, #25300054) was added to trypsinise the cells for 3 min at 37°C. Then, 13 ml of complete medium (Table 1) was added to stop the trypsinisation process. Cell numbers were count via Trypan Blue staining and 30.000 viable cells in 50 µl were seeded out per well, in a 96-well tissue culture plate at 37°C and 5% CO2. After overnight adhesion of the cells, three different mechanisms to induce cellular stress on the tumour cells were tested: (i) addition of 0,5% DMSO in the cell culture medium, (ii) adding 1,5 µM Lenalidomide in the cell culture medium, (iii) or replacement of the complete medium by cell culture medium without supplemented FBS for serum-starvation. As normal control, for cells not under additional cellular stress, cells were left in complete medium. The stress-induction was performed overnight at 37°C and 5% CO2. The next day, to reduce unspecific binding of detection antibody to the plastic of the cell culture plate, each well was filled up to the top with 50% FBS in PBS, carefully pipette on top of the incubation medium, and incubated for 30 minutes at 37°C. Then, the all medium was discarded from the wells and 50 µl of 1:100-diluted FcR Blocking Reagent (MACS Miltenyi #130-059-901) was added to each well to avoid unspecific binding by blocking of the Fc-Receptors on the tumour cells. […]
The HRP-reaction was stopped after sufficient colour development by adding 50 µl of stop solution (1 N Sulfuric Acid) to each well. Finally, the absorbance was measured in each well at a wavelength of 450 nm and a reference wavelength of 630 nm with a Tecan SPARK® multimode-mikroplate-reader. The absorbance values from the unspecific HRP-labelled control samples (samples without primary antibody but with corresponding HRP labelled secondary antibody), were used for the zero baseline model and set at 0 (Figure 19 and 20).

[3] = system: human Multiple Myeloma cell lines MM.1S; test: in vitro killing assay of anti-Ras bispecific antibody alone or in combination with Lenalidomide (luciferase read-out); assay type: cell-based; settings: MM1.S, Lenalidomide 1.5 µM alone, compared to the cells without Lenalidomide
Description: as §1, §2

Structure (SMILES): C[S+](C)[O-] [DMSO, Dimethyl Sulfoxide]
- viability drop at 70.4 µM [1]: 30%
- aberrant Ras protein on the cell surface ([2]; the four solid tumour cells (AsPC-1, Panc-1, MS-18, SK-BR-3), DMSO 0.5% (v/v)): down-regulating

Structure (SMILES): Nc1cccc2c1CN(C1CCC(=O)NC1=O)C2=O (centres unmarked) [Lenalidomide]
- percent drop in cell viability at 1.5 µM [3]: 25%
- aberrant Ras expression on the cell surface ([2]; AsPc-1 cells): up-regulating
- aberrant Ras expression on the cell surface ([2]; SK-BR-3 cells): up-regulating
